Measurements reported in patent publication US5149865A, “New p-oxibenzoic acid derivatives, process for their preparation and their use as drug” (Klinge Pharma GmbH, priority 1991, dated 1992).

Columns and labels:
[1] = system: total cholesterol (TC) and triglyceride (TG) level in the rat serum; test: Determination of the hypolipidemic effect on rats (serum total cholesterol and triglycerides after oral administration); assay type: in vivo, normolipemic male Wistar rats; conditions: 100 mg/kg oral, three administrations over 3 days, groups of 10 male Wistar rats
Protocol: 1) Determination of the hypolipidemic effect on rats
The lipid-reducing effect of the test substances was examined on groups each of 10 normolipemic male Wistar rats weighing 200 to 220 g.
The tests were carried out after a 3-week retraining of the eating habits of the animals. The controlled feeding was carried out daily from 8 a.m. to 10 a.m. The test substances were administered at 11 a.m.
The test compounds were absorbed in an aqueous solution of 0.25% agar and 0.84% sodium chloride and administered orally. After three administrations over a period of 3 days blood was extracted from the animals. Cholesterol and triglycerides were determined in the serum with the aid of the "Cobas-Bio" centrifugal analyzer of Hoffmann-La Roche:
a) Cholesterol determination
CHOD-PAP method, enzymatic color test according to J. Siedel et al. (J. Clin. Chem. Clin. Biochem. 19, 838 (1981))
b) Triglyceride determination
Enzymatic cleavage of the triglycerides with the aid of special lipases with subsequent determination of the liberated glycerol according to T. O. Tiffany et al. (Clin. Chem. 20, 476 (1974))

[2] = system: cholesterol biosynthesis in rat liver homogenate; test: Determination of the inhibition of cholesterol synthesis in rat liver homogenate (14C acetate incorporation); assay type: biochemical
Protocol: 2) Determination of the inhibition of cholesterol synthesis
3 g freshly prepared rat liver were homogenized in 6 ml ice-cooled buffer and centrifuged at 20000 * g for 20 minutes. The supernatant was separated off and used for the following determinations.
10 μl of the methanolic test substance solution was pipetted into a mixture of 110 μl supernatant and 300 μl incubation solution and incubated at 37° C. for 20 minutes. Thereafter, 10 μl of a ^14 C acetate solution was pipetted in and incubated for a further 30 minutes. Thereafter, 500 μl ethanolic KOH solution was added to the mixture, further incubated for 60 minutes at 75° C. and thereafter the reaction stopped by cooling in an ice bath. To enable a yield correction to be made for the subsequent extraction of the ^14 C cholesterol forming, ^3 H cholesterol (≈10^-3) was added by pipetting. In addition, 500 μl of an ethanolic solution of cold cholesterol was added. The cholesterol of the mixture was extracted twice with 1 ml petroleum ether, the extract concentrated by evaporating to dryness and taken up in 0.6 ml of an ethanol acetone mixture (1/1). The dissolved cholesterol was then precipitated by means of 1.4 ml of a digitonin solution (=7 mg). After 15 hours at 0° C. the precipitate was centrifuged off, dissolved with 0.5 ml methanol/glacial acetic acid (33/5) and diluted with two ml methanol. The radioactivity of the resulting cholesterol was then determined in […] scintillation liquid (Dimilume) by means of a scintillation counter.
Buffer: 6.8 g KH2 PO4, 0.6 g MgCl2, 0.37 g EDTA, 1.83 g nicotine amide, 51.35 g saccharose and 0.44 ml mercaptoethanol were dissolved in distilled water and diluted to 500 ml (PH =7.2)
Incubation solution: The following were dissolved, in each case individually:
8.6 mg […] with 1.3 ml buffer
10.2 mg NADP with 1.3 ml buffer
39.6 mg glucose-6-phosphate with 0.65 ml buffer
31.6 μl glucose-6-phosphate dehydrogenase (1000 U/0.9 ml) with 0.285 buffer
These solutions were not mixed until immediately prior to use.
^14 C-acetate: Solution: 250 μCi ^14 C-Na-acetate was dissolved by means of 1 ml distilled water, Solution 2: 512.5 mg Na-acetate was dissolved in 10 ml distilled water.
Before the test, 0.1 ml of solution 1 and 0.4 ml of solution 2 were mixed and then mixed with 2 ml distilled water.
Ethanolic KOH: 10 g were dissolved in 100 ml ethanol.
Method: R. E. Dugan et al. Archives Bioch. Biophys. 152 21, (1972)

SMILES	Percentage change of total cholesterol (TC) level in the rat serum, X ± SD [1]	Percentage change of triglyceride (TG) level in the rat serum, X ± SD [1]	cholesterol biosynthesis in rat liver homogenate, % Control ([2]; 1*10^-4 Mole/l, 100 µM) [% Control]	cholesterol biosynthesis in rat liver homogenate, % Control ([2]; 1*10^-5 Mole/l, 10 µM) [% Control]	cholesterol biosynthesis in rat liver homogenate, % Control ([2]; 1*10^-6 Mole/l, 1 µM) [% Control]	cholesterol biosynthesis in rat liver homogenate, % Control ([2]; 3*10^-4 Mole/l, 300 µM) [% Control]	cholesterol biosynthesis in rat liver homogenate, % Control ([2]; 3*10^-5 Mole/l, 30 µM) [% Control]	cholesterol biosynthesis in rat liver homogenate, % Control ([2]; 3*10^-6 Mole/l, 3 µM) [% Control]	cholesterol biosynthesis in rat liver homogenate, % Control ([2]; 3*10^-7 Mole/l, 0.3 µM) [% Control]
CCOC(=O)C(C)(C)Oc1ccc(Cl)cc1 [Clofibrate, reference compound]	-14.5 + 12.0 % Change	-29.2 + 19.4 % Change	–	–	–	–	–	–	–
CC(C)(C)c1ccc(C(O)CC(O)COc2ccc(C(=O)O)cc2)cc1 (single isomer, unassigned) [Diastereomer A, 1-(4'-tert.butylphenyl)-4-(4'-carboxyphenoxy)-butanediol-1,3]	-39.1 ± 15.5 % Change	-26.4 ± 13.1 % Change	9	36	103	2	14	97	122
CC(C)(C)c1ccc(C(O)CC(O)COc2ccc(C(=O)O)cc2)cc1 (single isomer, unassigned) [Diastereomer B, 1-(4'-tert.butylphenyl)-4-(4'-carboxyphenoxy)-butanediol-1,3]	-66.9 ± 8.6 % Change	-29.7 ± 15.5 % Change	–	42	–	–	–	–	–
